Test results: US20120171126A1, “NOVEL [3,2-c] HETEROARYL STEROIDS AS GLUCOCORTICOID RECEPTOR AGONISTS COMPOSITIONS AND USES THEREOF” (priority 2009, published 2012)
Like-named read-outs stand apart in the source and are kept apart here.

Test system: IL-8
Assay: Glucocorticoid transrepression assay, IL-8 inhibition (TR)
Format: cell-based
Settings: Homo sapiens, NCl-H292 cells, TNFα 10 ng/ml; for Emax: read-out: IL-8 inhibition (TR) Emax % inhibition
Method: Human Lung epithelial cell line NCl-H292 cells were dissociated from stock flask using 0.05% trypsin/0.53 mM EDTA. Cells were suspended in complete medium and counted. Cells were plated in 96-well flat-bottom plates at 20K cells /well in 0.2 ml/well. Plates were incubated for 24-48 hours until cells were between 75-90% confluent. Medium was aspirated and replaced with medium containing various concentrations of steroids or antagonists. After 1 hour incubation at 37°, TNFα (10 ng/ml final concentration in 0.2 ml) was added and the cells incubated overnight. Control wells with and without TNF were included on each plate, as well as wells with TNF in addition to a maximum (10 μM) concentration of dexamethasone. The cell culture medium was sampled and IL-6 and IL-8 cytokine production was measured using the MSD Multi-Spot immunoassay.

`CC12Cc3cnn(-c4ccc(F)cc4)c3C=C1CCC1C2[C@@H](O)CC2(C)C1CC[C@]2(O)C(=O)Cn1cc(-c2cccnc2)nn1` (stereo partly drawn) [Compound 1] was tested, and the IC50 (Table 6) was 0.06 to 20 nM and the Emax (Table 6) was greater than 80%.
With `CC12Cc3cnn(-c4ccc(F)cc4)c3C=C1CCC1C2[C@@H](O)CC2(C)C1CC[C@]2(O)C(=O)Nc1nc2cccnc2s1` (stereo partly drawn) [Compound 1] the IC50 (Table 2) was 0.06 to 20 nM and the Emax (Table 2) was greater than 80%.
For `C[C@]12Cc3cnn(-c4ccc(F)cc4)c3C=C1CCC1C2[C@@H](O)C[C@@]2(C)C1CC[C@]2(O)C(=O)CN1CCN(c2nc3ccccc3o2)CC1` (stereo partly drawn) [Compound 1], the IC50 (Table 5) was 0.06 to 20 nM and the Emax (Table 5) was greater than 80%.
With `C[C@]12Cc3cnoc3C=C1CCC1C2[C@@H](O)C[C@@]2(C)C1CC[C@]2(O)C(=O)CSc1nc2ccccc2o1` (stereo partly drawn) [Compound 1] the Emax (Table 3) was less than 60%.
With `C#CCN1CCN(CC(=O)[C@@]2(O)CCC3C4CCC5=Cc6c(cnn6-c6ccc(F)cc6)C[C@]5(C)C4[C@@H](O)C[C@@]32C)CC1` (stereo partly drawn) [Compound 2] the Emax (Table 5) was less than 60%.
`CC12Cc3cnn(-c4ccc(F)cc4)c3C=C1CCC1C2[C@@H](O)CC2(C)C1CC[C@]2(O)C(=O)Cn1cc(Cc2ccccc2)nn1` (stereo partly drawn) [Compound 2] was tested, and the IC50 (Table 6) was 0.06 to 20 nM and the Emax (Table 6) was greater than 80%.
In the case of `CC12Cc3cnn(-c4ccc(F)cc4)c3C=C1CCC1C2[C@@H](O)CC2(C)C1CC[C@]2(O)C(=O)Nc1nc2ccccc2s1` (stereo partly drawn) [Compound 2], the IC50 (Table 2) is reported as 0.06 to 20 nM and the Emax (Table 2) is reported as greater than 80%.
With `C[C@]12Cc3cnoc3C=C1CCC1C2[C@@H](O)C[C@@]2(C)C1CC[C@]2(O)C(=O)CSc1cnc2ccccc2n1` (stereo partly drawn) [Compound 2] the Emax (Table 3) was less than 60%.
In the case of `Cn1c(SCC(=O)[C@@]2(O)CCC3C4CCC5=Cc6c(cnn6-c6ccc(F)cc6)CC5(C)C4[C@@H](O)CC32C)nc2ccccc21` (stereo partly drawn) [Compound 2], the IC50 (Table 1) is reported as 0.06 to 20 nM and the Emax (Table 1) is reported as greater than 80%.
Compound `CC12Cc3cnn(-c4ccc(F)cc4)c3C=C1CCC1C2[C@@H](O)CC2(C)C1CC[C@]2(O)C(=O)NCc1ccccc1` (stereo partly drawn) [Compound 3] has an IC50 (Table 2) of 0.06 to 20 nM and an Emax (Table 2) greater than 80%.
Work on `CCOC(=O)c1cnn(CC(=O)[C@@]2(O)CCC3C4CCC5=Cc6c(cnn6-c6ccc(F)cc6)CC5(C)C4[C@@H](O)CC32C)c1` (stereo partly drawn) [Compound 3] yielded an IC50 (Table 7) of 0.06 to 20 nM and an Emax (Table 7) greater than 80%.
`C[C@]12Cc3cnn(-c4ccc(F)cc4)c3C=C1CCC1C2[C@@H](O)C[C@@]2(C)C1CC[C@]2(O)C(=O)CN1CCN(c2ccccn2)CC1` (stereo partly drawn) [Compound 3] gave an IC50 (Table 5) of 0.06 to 20 nM and an Emax (Table 5) greater than 80%.
In the case of `C[C@]12Cc3cnoc3C=C1CCC1C2[C@@H](O)C[C@@]2(C)C1CC[C@]2(O)C(=O)CSc1ccccn1` (stereo partly drawn) [Compound 3], the Emax (Table 3) is reported as less than 60%.
In the case of `C[C@]12Cc3cnn(-c4ccc(F)cc4)c3C=C1CCC1C2[C@@H](O)C[C@@]2(C)C1CC[C@]2(O)C(=O)CN1CCN(c2ncccn2)CC1` (stereo partly drawn) [Compound 4], the IC50 (Table 5) is reported as 0.06 to 20 nM and the Emax (Table 5) is reported as greater than 80%.
Compound `C[C@]12Cc3cnn(-c4ccc(F)cc4)c3C=C1CCC1C2[C@@H](O)C[C@@]2(C)C1CC[C@]2(O)C(=O)NC1(c2ccccc2)CC1` (stereo partly drawn) [Compound 4] has an IC50 (Table 2) of 0.06 to 20 nM and an Emax (Table 2) greater than 80%.
`C[C@]12Cc3cnoc3C=C1CCC1C2[C@@H](O)C[C@@]2(C)C1CC[C@]2(O)C(=O)CSc1ccc2ccccc2n1` (stereo partly drawn) [Compound 4] was tested, and the Emax (Table 3) was less than 60%.
`Cc1cnn(CC(=O)[C@@]2(O)CCC3C4CCC5=Cc6c(cnn6-c6ccc(F)cc6)CC5(C)C4[C@@H](O)CC32C)c1` (stereo partly drawn) [Compound 4] was tested, and the IC50 (Table 7) was 0.06 to 20 nM and the Emax (Table 7) was greater than 80%.
`C#CCNC(=O)[C@@]1(O)CCC2C3CCC4=Cc5c(cnn5-c5ccc(F)cc5)C[C@]4(C)C3[C@@H](O)C[C@@]21C` (stereo partly drawn) [Compound 5] showed an IC50 (Table 2) of 0.06 to 20 nM and an Emax (Table 2) greater than 80%.
Compound `CC12Cc3cnn(-c4ccc(F)cc4)c3C=C1CCC1C2[C@@H](O)CC2(C)C1CC[C@]2(O)C(=O)CSc1ccccn1` (stereo partly drawn) [Compound 5] has an IC50 (Table 1) of 0.06 to 20 nM and an Emax (Table 1) greater than 80%.
For `C[C@]12Cc3cnn(-c4ccc(F)cc4)c3C=C1CCC1C2[C@@H](O)C[C@@]2(C)C1CC[C@]2(O)C(=O)CN1CCN(Cc2ccc(C(F)(F)F)cc2)CC1` (stereo partly drawn) [Compound 5], the IC50 (Table 5) was 0.06 to 20 nM and the Emax (Table 5) was greater than 80%.
For `Cn1c(SCC(=O)[C@@]2(O)CCC3C4CCC5=Cc6oncc6C[C@]5(C)C4[C@@H](O)C[C@@]32C)nc2ccccc21` (stereo partly drawn) [Compound 5], the IC50 (Table 3) was 401 to 1000 nM and the Emax (Table 3) was less than 60%.
`CC12Cc3cnn(-c4ccc(F)cc4)c3C=C1CCC1C2[C@@H](O)CC2(C)C1CC[C@]2(O)C(=O)CSc1cnc2ccccc2n1` (stereo partly drawn) [Compound 6] showed an IC50 (Table 1) of 0.06 to 20 nM and an Emax (Table 1) greater than 80%.
`C[C@@H](NC(=O)[C@@]1(O)CCC2C3CCC4=Cc5c(cnn5-c5ccc(F)cc5)C[C@]4(C)C3[C@@H](O)C[C@@]21C)c1ccccc1` (stereo partly drawn) [Compound 6] was tested, and the IC50 (Table 2) was 0.06 to 20 nM and the Emax (Table 2) was greater than 80%.
Compound `C[C@]12Cc3cnoc3C=C1CCC1C2[C@@H](O)C[C@@]2(C)C1CC[C@]2(O)C(=O)CSc1nc2ccccc2s1` (stereo partly drawn) [Compound 6] has an Emax (Table 3) of less than 60%.
`CC12Cc3cnn(-c4ccc(F)cc4)c3C=C1CCC1C2[C@@H](O)CC2(C)C1CC[C@]2(O)C(=O)CSc1ncccn1` (stereo partly drawn) [Compound 7] showed an IC50 (Table 1) of 0.06 to 20 nM and an Emax (Table 1) greater than 80%.
For `C[C@@H](NC(=O)[C@@]1(O)CCC2C3CCC4=Cc5c(cnn5-c5ccc(F)cc5)C[C@]4(C)C3[C@@H](O)C[C@@]21C)c1cccc2ccccc12` (stereo partly drawn) [Compound 7], the IC50 (Table 2) was 0.06 to 20 nM and the Emax (Table 2) was greater than 80%.
`C[C@]12Cc3cnn(-c4ccc(F)cc4)c3C=C1CCC1C2[C@@H](O)C[C@@]2(C)C1CC[C@]2(O)C(=O)NC1(c2ncc(F)cc2F)CC1` (stereo partly drawn) [Compound 8] showed an IC50 (Table 2) of 0.06 to 20 nM and an Emax (Table 2) greater than 80%.
`CC12Cc3cnn(-c4ccc(F)cc4)c3C=C1CCC1C2[C@@H](O)CC2(C)C1CC[C@]2(O)C(=O)CC#N` (stereo partly drawn) [Compound 9] showed an IC50 (Table 1) of 0.06 to 20 nM and an Emax (Table 1) greater than 80%.
Work on `C[C@@H](NC(=O)[C@@]1(O)CCC2C3CCC4=Cc5c(cnn5-c5ccc(F)cc5)C[C@]4(C)C3[C@@H](O)C[C@@]21C)c1ccccn1` (stereo partly drawn) [Compound 9] yielded an IC50 (Table 2) of 0.06 to 20 nM and an Emax (Table 2) greater than 80%.
`CC12Cc3cnn(-c4ccc(F)cc4)c3C=C1CCC1C2[C@@H](O)CC2(C)C1CC[C@]2(O)C(=O)CSc1nc2cccnc2s1` (stereo partly drawn) [Compound 10] was tested, and the IC50 (Table 1) was 0.06 to 20 nM and the Emax (Table 1) was greater than 80%.
`C[C@]12Cc3cnn(-c4ccc(F)cc4)c3C=C1CCC1C2[C@@H](O)C[C@@]2(C)C1CC[C@]2(O)C(=O)NCc1ccc2nccn2c1` (stereo partly drawn) [Compound 10] showed an IC50 (Table 2) of 0.06 to 20 nM and an Emax (Table 2) greater than 80%.
`CC12Cc3cnn(-c4ccc(F)cc4)c3C=C1CCC1C2[C@@H](O)CC2(C)C1CC[C@]2(O)C(=O)CSc1nccc2ccccc12` (stereo partly drawn) [Compound 11] showed an IC50 (Table 1) of 0.06 to 20 nM and an Emax (Table 1) greater than 80%.
In the case of `C[C@]12Cc3cnn(-c4ccc(F)cc4)c3C=C1CCC1C2[C@@H](O)C[C@@]2(C)C1CC[C@]2(O)C(=O)NCCc1cnccn1` (stereo partly drawn) [Compound 11], the IC50 (Table 2) is reported as 0.06 to 20 nM and the Emax (Table 2) is reported as greater than 80%.
In the case of `C[C@]12Cc3cnn(-c4ccc(F)cc4)c3C=C1CCC1C2[C@@H](O)C[C@@]2(C)C1CC[C@]2(O)C(=O)NCCc1nc2ccccc2o1` (stereo partly drawn) [Compound 12], the IC50 (Table 2) is reported as 0.06 to 20 nM and the Emax (Table 2) is reported as greater than 80%.
`C[C@H](NC(=O)[C@@]1(O)CCC2C3CCC4=Cc5c(cnn5-c5ccc(F)cc5)C[C@]4(C)C3[C@@H](O)C[C@@]21C)c1ccccc1` (stereo partly drawn) [Compound 13] was tested, and the IC50 (Table 2) was 0.06 to 20 nM and the Emax (Table 2) was greater than 80%.
`CC12Cc3cnn(-c4ccc(F)cc4)c3C=C1CCC1C2[C@@H](O)CC2(C)C1CC[C@]2(O)C(=O)NCc1cn(Cc2ccccc2)nn1` (stereo partly drawn) [Compound 14] gave an IC50 (Table 2) of 0.06 to 20 nM and an Emax (Table 2) greater than 80%.
In the case of `Cn1c(SCC(=O)[C@@]2(O)CCC3C4CCC5=Cc6c(cnn6-c6ccccc6)CC5(C)C4[C@@H](O)CC32C)nc2ccccc21` (stereo partly drawn) [Compound 14], the IC50 (Table 1) is reported as 0.06 to 20 nM and the Emax (Table 1) is reported as greater than 80%.
`CC12Cc3cnn(-c4ccccc4)c3C=C1CCC1C2[C@@H](O)CC2(C)C1CC[C@]2(O)C(=O)CSc1ccc2ccccc2n1` (stereo partly drawn) [Compound 15] showed an IC50 (Table 1) of 0.06 to 20 nM and an Emax (Table 1) greater than 80%.
With `C[C@H](NC(=O)[C@@]1(OC(=O)c2ccco2)CCC2C3CCC4=Cc5c(cnn5-c5ccc(F)cc5)CC4(C)C3[C@@H](O)CC21C)c1cccc2ccccc12` (stereo partly drawn) [Compound 15] the IC50 (Table 2) was 0.06 to 20 nM and the Emax (Table 2) was greater than 80%.
`CC12Cc3cnn(-c4ccccc4)c3C=C1CCC1C2[C@@H](O)CC2(C)C1CC[C@]2(O)C(=O)CSc1ccccn1` (stereo partly drawn) [Compound 16] showed an IC50 (Table 1) of 0.06 to 20 nM and an Emax (Table 1) greater than 80%.
Compound `C[C@H](NC(=O)[C@@]1(OC(=O)c2ccco2)CCC2C3CCC4=Cc5c(cnn5-c5ccc(F)cc5)CC4(C)C3[C@@H](O)CC21C)c1ccccc1` (stereo partly drawn) [Compound 16] has an IC50 (Table 2) of 0.06 to 20 nM and an Emax (Table 2) greater than 80%.
In the case of `CC12Cc3cnn(-c4ccc(F)cc4)c3C=C1CCC1C2[C@@H](O)CC2(C)C1CC[C@]2(OC(=O)c1ccco1)C(=O)NCCc1cnccn1` (stereo partly drawn) [Compound 17], the IC50 (Table 2) is reported as 0.06 to 20 nM and the Emax (Table 2) is reported as greater than 80%.
In the case of `CC12Cc3cnn(-c4ccc(F)cc4)c3C=C1CCC1C2[C@@H](O)CC2(C)C1CC[C@]2(O)C(=O)Nc1nc2ccc(S(N)(=O)=O)cc2s1` (stereo partly drawn) [Compound 18], the IC50 (Table 2) is reported as 0.06 to 20 nM and the Emax (Table 2) is reported as greater than 80%.
With `CC12Cc3cnn(-c4ccc(F)cc4)c3C=C1CCC1C2[C@@H](O)CC2(C)C1CC[C@]2(O)C(=O)N[C@H](CO)CCc1ccccc1` (stereo partly drawn) [Compound 19] the IC50 (Table 2) was 0.06 to 20 nM and the Emax (Table 2) was greater than 80%.
`CC12Cc3cnn(-c4ccccc4)c3C=C1CCC1C2[C@@H](O)CC2(C)C1CC[C@]2(O)C(=O)CSc1nc2ccccc2o1` (stereo partly drawn) [Compound 19] gave an IC50 (Table 1) of 401 to 1000 nM and an Emax (Table 1) of less than 60%.
